pKd: −log10 of the molar value. Activity calls are given as the source filed them. For most assays here, no stated cut-off is given here; in the data, actives have a measured Kd and inactives only a lower limit.
How the values were obtained:
[1] = target: T1, Septin-9 (Homo sapiens, UniProt Q9UHD8)
T1 sequence (Q9UHD8 whole entry): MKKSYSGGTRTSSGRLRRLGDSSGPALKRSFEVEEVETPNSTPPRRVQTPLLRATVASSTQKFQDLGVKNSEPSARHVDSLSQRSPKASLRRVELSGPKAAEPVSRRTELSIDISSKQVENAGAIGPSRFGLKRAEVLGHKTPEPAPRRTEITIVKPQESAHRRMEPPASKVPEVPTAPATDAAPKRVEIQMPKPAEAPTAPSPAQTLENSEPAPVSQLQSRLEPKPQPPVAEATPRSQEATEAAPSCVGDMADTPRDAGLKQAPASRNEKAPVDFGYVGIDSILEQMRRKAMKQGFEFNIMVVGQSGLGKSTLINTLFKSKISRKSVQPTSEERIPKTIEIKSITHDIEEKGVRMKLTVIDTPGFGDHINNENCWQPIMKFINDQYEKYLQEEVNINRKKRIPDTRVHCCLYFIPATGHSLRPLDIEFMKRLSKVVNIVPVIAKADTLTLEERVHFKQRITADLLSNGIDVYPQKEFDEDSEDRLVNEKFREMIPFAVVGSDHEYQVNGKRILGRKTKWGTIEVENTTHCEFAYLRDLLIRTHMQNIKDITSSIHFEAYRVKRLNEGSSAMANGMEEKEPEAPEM

[2] = target: Mitogen-activated protein kinase kinase kinase kinase 5 (Homo sapiens, UniProt Q9Y4K4)
[3] = target: T2, Phosphatidylinositol 5-phosphate 4-kinase type-2 gamma (Homo sapiens, UniProt Q8TBX8)
T2 sequence (Q8TBX8 whole entry): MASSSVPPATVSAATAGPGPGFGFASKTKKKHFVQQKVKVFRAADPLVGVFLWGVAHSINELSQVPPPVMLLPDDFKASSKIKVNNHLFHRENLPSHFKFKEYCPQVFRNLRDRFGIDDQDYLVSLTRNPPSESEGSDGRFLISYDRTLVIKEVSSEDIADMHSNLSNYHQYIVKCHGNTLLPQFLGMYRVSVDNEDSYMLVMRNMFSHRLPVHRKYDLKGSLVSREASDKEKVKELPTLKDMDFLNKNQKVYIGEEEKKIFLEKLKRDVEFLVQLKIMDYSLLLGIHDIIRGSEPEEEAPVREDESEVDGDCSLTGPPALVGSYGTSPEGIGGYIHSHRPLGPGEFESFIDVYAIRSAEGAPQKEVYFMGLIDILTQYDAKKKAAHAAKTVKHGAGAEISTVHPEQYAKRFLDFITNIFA

[4] = target: T3, Cyclin-G-associated kinase (Homo sapiens, UniProt O14976)
T3 sequence (O14976 whole entry): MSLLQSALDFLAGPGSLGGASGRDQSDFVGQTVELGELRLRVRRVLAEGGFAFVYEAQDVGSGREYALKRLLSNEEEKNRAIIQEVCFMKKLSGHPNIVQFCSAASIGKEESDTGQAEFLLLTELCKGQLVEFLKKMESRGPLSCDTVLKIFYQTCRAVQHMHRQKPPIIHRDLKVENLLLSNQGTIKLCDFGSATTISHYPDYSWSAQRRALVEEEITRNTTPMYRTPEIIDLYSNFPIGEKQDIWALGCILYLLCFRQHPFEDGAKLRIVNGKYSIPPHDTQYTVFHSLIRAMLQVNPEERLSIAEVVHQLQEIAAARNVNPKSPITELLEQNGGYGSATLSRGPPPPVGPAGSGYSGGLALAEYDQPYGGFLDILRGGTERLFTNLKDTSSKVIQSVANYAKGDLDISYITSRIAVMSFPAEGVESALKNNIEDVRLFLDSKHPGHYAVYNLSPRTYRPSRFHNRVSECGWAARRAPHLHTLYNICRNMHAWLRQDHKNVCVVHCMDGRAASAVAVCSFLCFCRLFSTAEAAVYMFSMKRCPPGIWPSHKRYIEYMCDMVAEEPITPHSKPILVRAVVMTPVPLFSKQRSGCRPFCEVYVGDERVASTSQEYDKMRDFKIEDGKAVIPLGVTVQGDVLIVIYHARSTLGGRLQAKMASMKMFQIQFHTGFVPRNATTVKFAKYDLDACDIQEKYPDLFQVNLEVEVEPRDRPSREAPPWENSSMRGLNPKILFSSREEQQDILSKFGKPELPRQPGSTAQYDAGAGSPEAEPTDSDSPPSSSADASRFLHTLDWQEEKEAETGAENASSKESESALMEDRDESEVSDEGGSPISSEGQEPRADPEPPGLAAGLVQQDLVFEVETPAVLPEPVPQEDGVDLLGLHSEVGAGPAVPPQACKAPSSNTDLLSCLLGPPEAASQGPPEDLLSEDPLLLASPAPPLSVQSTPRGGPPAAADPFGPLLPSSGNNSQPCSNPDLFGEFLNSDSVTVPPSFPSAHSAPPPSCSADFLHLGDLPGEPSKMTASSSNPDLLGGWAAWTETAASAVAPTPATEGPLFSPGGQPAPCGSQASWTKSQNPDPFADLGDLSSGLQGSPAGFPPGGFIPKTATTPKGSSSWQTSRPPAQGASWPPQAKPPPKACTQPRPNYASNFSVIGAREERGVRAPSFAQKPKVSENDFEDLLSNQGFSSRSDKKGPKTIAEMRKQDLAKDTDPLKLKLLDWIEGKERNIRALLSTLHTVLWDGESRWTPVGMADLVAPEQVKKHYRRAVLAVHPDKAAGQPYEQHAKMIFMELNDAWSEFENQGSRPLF

[5] = target: Protein-tyrosine kinase 6 (Homo sapiens, UniProt Q13882)
[6] = target: Cyclin-dependent kinase 12 (Homo sapiens, UniProt Q9NYV4)
[7] = target: GTP-binding nuclear protein Ran (Homo sapiens, UniProt P62826)
[8] = target: T4, ADP/ATP translocase 2 (Homo sapiens, UniProt P05141)
T4 sequence (P05141 whole entry): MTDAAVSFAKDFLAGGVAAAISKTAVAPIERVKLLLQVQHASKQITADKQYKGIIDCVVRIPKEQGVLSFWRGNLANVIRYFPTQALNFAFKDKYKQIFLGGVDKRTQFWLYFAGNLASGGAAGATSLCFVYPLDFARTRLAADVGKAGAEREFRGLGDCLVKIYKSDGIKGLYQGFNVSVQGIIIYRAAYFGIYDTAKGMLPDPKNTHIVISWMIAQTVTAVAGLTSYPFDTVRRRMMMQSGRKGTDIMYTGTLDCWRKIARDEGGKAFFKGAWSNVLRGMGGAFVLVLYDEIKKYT

Sequence of Cyclin-dependent kinase 12 (Q9NYV4 whole entry): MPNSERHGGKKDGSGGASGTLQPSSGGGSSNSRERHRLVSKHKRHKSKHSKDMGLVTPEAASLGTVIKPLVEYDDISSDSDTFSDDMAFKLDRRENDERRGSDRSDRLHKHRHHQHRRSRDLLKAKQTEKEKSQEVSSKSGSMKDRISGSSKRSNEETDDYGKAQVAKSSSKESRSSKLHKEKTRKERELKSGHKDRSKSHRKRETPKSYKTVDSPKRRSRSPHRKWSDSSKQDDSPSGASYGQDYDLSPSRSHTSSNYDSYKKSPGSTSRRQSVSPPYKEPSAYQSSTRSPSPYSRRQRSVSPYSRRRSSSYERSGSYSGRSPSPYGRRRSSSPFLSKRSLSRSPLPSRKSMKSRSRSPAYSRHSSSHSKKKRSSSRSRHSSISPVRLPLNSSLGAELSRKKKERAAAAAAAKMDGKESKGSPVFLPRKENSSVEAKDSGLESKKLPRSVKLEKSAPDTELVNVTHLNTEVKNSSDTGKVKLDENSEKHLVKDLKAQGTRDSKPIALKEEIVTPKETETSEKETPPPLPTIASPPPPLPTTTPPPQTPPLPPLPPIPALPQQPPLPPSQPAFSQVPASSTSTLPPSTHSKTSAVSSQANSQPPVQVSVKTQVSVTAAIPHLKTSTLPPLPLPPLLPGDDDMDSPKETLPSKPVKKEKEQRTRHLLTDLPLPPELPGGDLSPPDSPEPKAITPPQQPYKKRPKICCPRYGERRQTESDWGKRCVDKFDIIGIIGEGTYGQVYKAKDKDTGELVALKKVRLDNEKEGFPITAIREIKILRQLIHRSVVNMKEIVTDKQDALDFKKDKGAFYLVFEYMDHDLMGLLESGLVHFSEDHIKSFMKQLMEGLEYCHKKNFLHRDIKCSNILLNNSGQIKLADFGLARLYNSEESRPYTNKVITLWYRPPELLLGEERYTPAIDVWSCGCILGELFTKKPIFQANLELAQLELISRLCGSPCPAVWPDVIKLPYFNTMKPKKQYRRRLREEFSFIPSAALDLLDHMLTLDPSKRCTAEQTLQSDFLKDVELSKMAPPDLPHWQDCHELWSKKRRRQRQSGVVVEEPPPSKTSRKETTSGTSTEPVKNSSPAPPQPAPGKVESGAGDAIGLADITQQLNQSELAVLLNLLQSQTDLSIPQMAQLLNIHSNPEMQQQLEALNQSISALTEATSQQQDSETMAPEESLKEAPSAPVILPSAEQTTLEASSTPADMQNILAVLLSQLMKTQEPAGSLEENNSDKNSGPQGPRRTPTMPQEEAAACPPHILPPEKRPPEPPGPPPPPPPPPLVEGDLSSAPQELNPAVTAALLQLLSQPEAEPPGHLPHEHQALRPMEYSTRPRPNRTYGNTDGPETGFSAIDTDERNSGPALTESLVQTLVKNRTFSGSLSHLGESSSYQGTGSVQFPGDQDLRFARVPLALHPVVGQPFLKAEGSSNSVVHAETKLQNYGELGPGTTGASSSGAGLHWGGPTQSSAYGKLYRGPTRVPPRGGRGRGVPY
Sequence of Protein-tyrosine kinase 6 (Q13882 whole entry): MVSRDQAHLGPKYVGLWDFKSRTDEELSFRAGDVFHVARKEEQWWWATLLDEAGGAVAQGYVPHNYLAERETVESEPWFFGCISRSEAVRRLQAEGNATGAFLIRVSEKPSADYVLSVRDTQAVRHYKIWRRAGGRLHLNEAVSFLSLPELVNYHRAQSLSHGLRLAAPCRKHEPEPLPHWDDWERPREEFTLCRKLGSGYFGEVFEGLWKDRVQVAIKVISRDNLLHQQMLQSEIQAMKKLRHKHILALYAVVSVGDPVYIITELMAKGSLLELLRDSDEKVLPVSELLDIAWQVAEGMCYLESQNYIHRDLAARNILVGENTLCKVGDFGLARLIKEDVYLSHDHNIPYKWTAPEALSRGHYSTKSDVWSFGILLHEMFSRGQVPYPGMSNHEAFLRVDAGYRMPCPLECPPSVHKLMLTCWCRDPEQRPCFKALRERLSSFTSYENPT
Sequence of Mitogen-activated protein kinase kinase kinase kinase 5 (Q9Y4K4 whole entry): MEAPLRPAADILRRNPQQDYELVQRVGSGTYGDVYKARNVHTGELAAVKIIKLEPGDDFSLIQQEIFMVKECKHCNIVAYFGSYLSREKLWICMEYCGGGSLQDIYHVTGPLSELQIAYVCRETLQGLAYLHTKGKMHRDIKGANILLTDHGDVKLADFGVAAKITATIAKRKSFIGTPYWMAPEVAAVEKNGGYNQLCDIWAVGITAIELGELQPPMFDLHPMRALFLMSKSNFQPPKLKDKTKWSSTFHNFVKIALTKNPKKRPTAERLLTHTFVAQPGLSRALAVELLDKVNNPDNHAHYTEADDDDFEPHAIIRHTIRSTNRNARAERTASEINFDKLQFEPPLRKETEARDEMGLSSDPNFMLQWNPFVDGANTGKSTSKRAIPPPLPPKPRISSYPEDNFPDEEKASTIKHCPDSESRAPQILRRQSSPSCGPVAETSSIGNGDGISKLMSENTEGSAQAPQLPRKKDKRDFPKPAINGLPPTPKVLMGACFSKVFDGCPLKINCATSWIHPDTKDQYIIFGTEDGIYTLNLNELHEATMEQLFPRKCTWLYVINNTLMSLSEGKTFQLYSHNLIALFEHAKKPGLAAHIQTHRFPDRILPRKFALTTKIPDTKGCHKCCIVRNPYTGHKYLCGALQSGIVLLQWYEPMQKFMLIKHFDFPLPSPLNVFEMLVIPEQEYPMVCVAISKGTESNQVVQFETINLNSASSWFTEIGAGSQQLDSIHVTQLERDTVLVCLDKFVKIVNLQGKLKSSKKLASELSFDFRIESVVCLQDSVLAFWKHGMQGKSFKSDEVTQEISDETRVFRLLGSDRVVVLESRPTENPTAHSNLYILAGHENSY

| Compound | Kd [1] | Kd [2] | Kd [3] | Kd [4] | Kd [5] | Kd [6] | Kd [7] | Kd [8] | pKd [3] |
| --- | --- | --- | --- | --- | --- | --- | --- | --- | --- |
| CNC(=O)c1ccc(-c2cnc3ncc(Cc4ccc5ncccc5c4)n3n2)cc1F [CAPMATINIB] | > 30 µM (inactive) | > 30 µM (inactive) | > 30 µM (inactive) | > 30 µM (inactive) | > 30 µM (inactive) | > 30 µM (inactive) | > 30 µM (inactive) | > 30 µM (inactive) |  |
| CNC(=O)CN1CCC(Oc2cc3c(Nc4cccc(Cl)c4F)ncnc3cc2OC)CC1 [SAPITINIB] | > 30 µM (inactive) | > 30 µM (inactive) | > 30 µM (inactive) | 0.176 µM (active) | 2.2 µM (active) | > 30 µM (inactive) | > 30 µM (inactive) | > 30 µM (inactive) |  |
| Cc1ccc(S(=O)(=O)Nc2nc3ccccc3nc2Nc2ccc3nsnc3c2)cc1 | > 30 µM (inactive) | > 30 µM (inactive) | > 30 µM (inactive) | > 30 µM (inactive) | > 30 µM (inactive) | > 30 µM (inactive) | > 30 µM (inactive) | > 30 µM (inactive) |  |
| N[C@@H]1CCCN(c2c(/C=C3\SC(=O)NC3=O)cccc2-c2ccccc2)C1 | > 30 µM (inactive) | > 30 µM (inactive) | > 30 µM (inactive) | > 30 µM (inactive) | > 30 µM (inactive) | > 30 µM (inactive) | > 30 µM (inactive) | > 30 µM (inactive) |  |
| CN1CCC(COc2cnc(-c3cccc(Cn4nc(-c5cccc(C#N)c5)ccc4=O)c3)nc2)CC1 [TEPOTINIB] | > 30 µM (inactive) | > 30 µM (inactive) | > 30 µM (inactive) | > 30 µM (inactive) | > 30 µM (inactive) | > 30 µM (inactive) | > 30 µM (inactive) | > 30 µM (inactive) |  |
| O=C(c1ccc(F)c(F)c1Nc1ccc(I)cc1F)N1CC(O)([C@@H]2CCCCN2)C1 [COBIMETINIB] | > 30 µM (inactive) | > 30 µM (inactive) | > 30 µM (inactive) | > 30 µM (inactive) | > 30 µM (inactive) | > 30 µM (inactive) | > 30 µM (inactive) | > 30 µM (inactive) |  |
| CNC(=O)c1ccc(C)c(-n2c(C)cc(OCc3ccc(F)cc3F)c(Br)c2=O)c1 [PH-797804] | > 30 µM (inactive) | > 30 µM (inactive) | > 30 µM (inactive) | > 30 µM (inactive) | > 30 µM (inactive) | > 30 µM (inactive) | > 30 µM (inactive) | > 30 µM (inactive) |  |
| CNC(=O)c1cc(Oc2ccc(NC(=O)Nc3ccc(Cl)c(C(F)(F)F)c3)c(F)c2)ccn1 [REGORAFENIB] | > 30 µM (inactive) | > 30 µM (inactive) | > 30 µM (inactive) | > 30 µM (inactive) | > 30 µM (inactive) | > 30 µM (inactive) | > 30 µM (inactive) | > 30 µM (inactive) |  |
| Cc1ccc(NC(=O)c2ccc(CN3CC[C@H](N(C)C)C3)c(C(F)(F)F)c2)cc1Nc1nccc(-c2cncnc2)n1 [BAFETINIB] | > 30 µM (inactive) | > 30 µM (inactive) |  | > 30 µM (inactive) | > 30 µM (inactive) | > 30 µM (inactive) | > 30 µM (inactive) | > 30 µM (inactive) | 5.21 |
| Cn1cc(-c2ccc(F)c(C(F)(F)F)c2)nc1C1CCN(c2ncnc3[nH]ncc23)CC1 [LY-2584702] | > 30 µM (inactive) | > 30 µM (inactive) | > 30 µM (inactive) | > 30 µM (inactive) | > 30 µM (inactive) | > 30 µM (inactive) | > 30 µM (inactive) | > 30 µM (inactive) |  |
| COc1cc(OC)c(/C=C/S(=O)(=O)Cc2ccc(OC)c(NCC(=O)O)c2)c(OC)c1 [RIGOSERTIB] | > 30 µM (inactive) | > 30 µM (inactive) | > 30 µM (inactive) | > 30 µM (inactive) | > 30 µM (inactive) | > 30 µM (inactive) | > 30 µM (inactive) | > 30 µM (inactive) |  |
| CC[C@@H]1C(=O)N(C)c2cnc(Nc3ccc(C(=O)N[C@H]4CC[C@H](N5CCN(CC6CC6)CC5)CC4)cc3OC)nc2N1C(C)C [VOLASERTIB] | > 30 µM (inactive) | > 30 µM (inactive) | > 30 µM (inactive) | > 30 µM (inactive) | > 30 µM (inactive) | > 30 µM (inactive) | > 30 µM (inactive) | > 30 µM (inactive) |  |

Second part, the compound after the results:

| Kd [1] | Kd [2] | Kd [3] | Kd [4] | Kd [5] | Kd [6] | Kd [7] | Kd [8] | pKd [3] | Compound |
| --- | --- | --- | --- | --- | --- | --- | --- | --- | --- |
| > 30 µM (inactive) | > 30 µM (inactive) |  | 7.44 µM (active) | > 30 µM (inactive) | > 30 µM (inactive) | > 30 µM (inactive) | > 30 µM (inactive) | 6.48 | O=C1NC(=O)/C(=C/c2ccc3nccc(-c4ccncc4)c3c2)S1 [GSK-1059615] |
| > 30 µM (inactive) | > 30 µM (inactive) | 1.59 µM (active) | 0.05 µM (active) | > 30 µM (inactive) | > 30 µM (inactive) | > 30 µM (inactive) | > 30 µM (inactive) |  | O=C(Nc1ccc(-c2ccnc(Nc3ccc(N4CCOCC4)cc3)n2)cc1)C1CCCN1 (stereo not drawn) [XL-019] |
| > 30 µM (inactive) | 0.006 µM (active) | > 30 µM (inactive) | > 30 µM (inactive) | > 30 µM (inactive) | > 30 µM (inactive) | > 30 µM (inactive) | > 30 µM (inactive) |  | COc1cc(CCc2cc(NC(=O)c3ccc(N4C[C@@H](C)N[C@@H](C)C4)cc3)n[nH]2)cc(OC)c1 [AZD-4547] |
| > 30 µM (inactive) | > 30 µM (inactive) | > 30 µM (inactive) | 8.63 µM (active) | > 30 µM (inactive) | > 30 µM (inactive) | > 30 µM (inactive) | > 30 µM (inactive) |  | CN1CCC(CNc2ccc3ncc(-c4cccc(OC(F)(F)F)c4)n3n2)CC1 [SGI-1776] |

Reference: ChEMBL document CHEMBL3991601, “The target landscape of clinical kinase drugs” (Science, 2017)
